Test results reported in patent US11608325B2, “Polycrystalline form of dehydrophenylahistin-like compound, and manufacturing and purification method and application thereof” (Shenzhen Huahong Marine Biomedicine Co., Ltd., priority 2016, dated 2023).
“Also recorded” adds a separate entry of the source.

Experiments:
Assay type in all cases: physicochemical
[1] = Stability study of plinabulin polymorphs
[2] = Transformation of other crystalline forms under humidity or in water; settings: after being stirred in water for 3 hours
[3] = High-temperature stress test (60° C.); settings: for stability under high-temperature condition: stress testing, high temperature (60° C.); for Appearance / Content (HPLC) (calculated as an anhydride) / Relevant substance (HPLC) Impurity D / Relevant substance (HPLC) Total impurities / Relevant substance (HPLC) Impurity A: High-temperature test/60° C.; for Relevant substance (HPLC) Impurity A: LOQ (0.035%)
Description: (§1) In accordance with the general rule 9001 of guiding principles for stability tests of APIs and preparations in the Chinese Pharmacopoeia 2015 edition Volume IV, stress testing of the δ-crystalline form of (3Z,6Z)-3-benzylidene-6-[(5-tert-butyl-1H-imidazol-4-yl)deuteromethylene]piperazine-2,5-dione was conducted under high temperature, high humidity and illumination conditions, the sample batch number was 20150401, and the results are shown in Tables 7, 8 and 9 below.

[4] = Hygroscopicity test (Chinese Pharmacopoeia 2015 Volume IV, general rule 9103); settings: for Weight gain: Left for 24 h
Description: The test was conducted according to the general rule 9103 of guiding principle for drug hygroscopicity test in Chinese Pharmacopoeia 2015 edition Volume IV, and the results are shown in Table 6.

[5] = High-humidity stress test (25° C., 90% RH); settings: for Appearance / Content (HPLC) (calculated as an anhydride) / Relevant substance Impurity D / Relevant substance Total impurities / Relevant substance Impurity A: High-humidity test/25° C., 90% RH; for Relevant substance Impurity A: LOQ (0.035%); for stability / transformation under high-humidity condition: stress testing, high humidity (25° C., 90% RH), monohydrate
Description: as §1

[6] = 6-month accelerated stability test (40° C.±2° C./75%±5% RH)
Description: Meanwhile, a 6-month accelerated stability test was conducted on the δ-crystalline form of (3Z,6Z)-3-benzylidene-6-[(5-tert-butyl-1H-imidazol-4-yl)deuteromethylene]piperazine-2,5-dione. The sample batch number was 20150404. Factory packaging was simulated. The test conditions were 40° C.±2° C./75%±5% RH.

[7] = Illumination stress test (4500 Lx±500 Lx); settings: for Appearance / Content (HPLC) (calculated as an anhydride) / Relevant substance (HPLC) Impurity D / Relevant substance (HPLC) Total impurities / Relevant substance (HPLC) Impurity A: Illumination test/4500Lx ± 500Lx; for Relevant substance (HPLC) Impurity A: LOQ (0.035%); for stability under illumination condition: stress testing, illumination (4500 Lx±500 Lx), monohydrate
Description: as §1

[8] = listed as (3Z,6Z)-3-benzylidene-6-[(5-tert-butyl-1H-imidazol-4-yl)deuteromethylene]piperaz
[9] = listed as 20150401, monohydrate
[10] = listed as 20150402, monohydrate
[11] = listed as 20150403, monohydrate

## CC(C)(C)c1[nH]cnc1/C=c1\[nH]c(=O)/c(=C/c2ccccc2)[nH]c1=O.O [d-crystalline form, (3Z,6Z)-3-benzylidene-6-[(5-tert-butyl-1H-imidazol-4-yl)methylene]piperazine-2,5-dione monohydrate]
[1]
  stability: high stability
[1]; during preparation and storage processes
  molecular stability: excellent molecular stability
[1]; high temperature, high humidity and illumination conditions
  stability as solid API in stress testing: remain stable

## [2H]/C(c1nc[nH]c1C(C)(C)C)=c1/[nH]c(=O)/c(=C/c2ccccc2)[nH]c1=O [γ-crystalline form, (3Z,6Z)-3-benzylidene-6-[(5-tert-butyl-1H-imidazol-4-yl)deuteromethylene]piperazine-2,5-dione]
[2]
  transformation of crystalline form: most of which may transform into δ-crystalline form
[3]
  stability under high-temperature condition: not stable enough
[4]
  Hygroscopicity: no hygroscopicity

## CC(C)(C)c1[nH]cnc1/C=c1\[nH]c(=O)/c(=C/c2ccccc2)[nH]c1=O [a-crystalline form, (3Z,6Z)-3-benzylidene-6-[(5-tert-butyl-1H-imidazol-4-yl)methylene]piperazine-2,5-dione]
[1]; plinabulin crystalline forms
  Hygroscopicity: certain hygroscopicity
[1]; under high humidity condition
  transformation of crystalline form: easily transformed into a d-crystalline form

## CC(C)O.[2H]/C(c1nc[nH]c1C(C)(C)C)=c1/[nH]c(=O)/c(=C/c2ccccc2)[nH]c1=O [ε-crystalline form, (3Z,6Z)-3-benzylidene-6-[(5-tert-butyl-1H-imidazol-4-yl)deuteromethylene]piperazine-2,5-dione monoisopropylate]
[3]
  stability under high-temperature condition: not stable enough

## O.[2H]/C(c1nc[nH]c1C(C)(C)C)=c1/[nH]c(=O)/c(=C/c2ccccc2)[nH]c1=O [δ-crystalline form, (3Z,6Z)-3-benzylidene-6-[(5-tert-butyl-1H-imidazol-4-yl)deuteromethylene]piperazine-2,5-dione monohydrate]
[5]; day 0
  Appearance: Yellow powder
  Content (HPLC) (calculated as an anhydride): 99.7%
  Relevant substance Impurity D: Impurity D: 0.06%
  Relevant substance Total impurities: 0.07%
  Relevant substance Impurity A: Impurity A: <LOQ
[5]; day 5
  Appearance: Yellow powder
  Content (HPLC) (calculated as an anhydride): 99.5%
  Relevant substance Impurity D: Impurity D: 0.06%
  Relevant substance Total impurities: 0.07%
  Relevant substance Impurity A: Impurity A: <LOQ
[5]; day 10
  Appearance: Yellow powder
  Content (HPLC) (calculated as an anhydride): 99.6%
  Relevant substance Impurity D: Impurity D: 0.06%
  Relevant substance Total impurities: 0.07%
  Relevant substance Impurity A: Impurity A: <LOQ
[5]; [8]
  stability / transformation under high-humidity condition: remain stable
[5]
  stability / transformation under high-humidity condition: very stable; also recorded: relatively stable
[6]; 6 months, monohydrate
  stability in accelerated stability test: very stable; also recorded: excellent stability
[6]; month 0
  Content (HPLC) (calculated as an anhydride): 99.5%
  Relevant substance (HPLC) Impurity D: 0.06%
  Relevant substance (HPLC) Other single impurity: Not detected
  Relevant substance (HPLC) Total impurities: 0.07%
[6]; month 0, LOQ (0.035%)
  Relevant substance (HPLC) Impurity A: <LOQ
[6]; month 1
  Content (HPLC) (calculated as an anhydride): 99.6%
  Relevant substance (HPLC) Impurity D: 0.06%
  Relevant substance (HPLC) Other single impurity: Not detected
  Relevant substance (HPLC) Total impurities: 0.08%
[6]; month 1, LOQ (0.035%)
  Relevant substance (HPLC) Impurity A: <LOQ
[6]; month 2
  Content (HPLC) (calculated as an anhydride): 100.2%
  Relevant substance (HPLC) Impurity D: 0.06%
  Relevant substance (HPLC) Other single impurity: Not detected
  Relevant substance (HPLC) Total impurities: 0.08%
[6]; month 2, LOQ (0.035%)
  Relevant substance (HPLC) Impurity A: <LOQ
[6]; month 3
  Content (HPLC) (calculated as an anhydride): 99.8%
  Relevant substance (HPLC) Impurity D: 0.06%
  Relevant substance (HPLC) Other single impurity: Not detected
  Relevant substance (HPLC) Total impurities: 0.08%
[6]; month 3, LOQ (0.035%)
  Relevant substance (HPLC) Impurity A: <LOQ
[6]; month 6
  Content (HPLC) (calculated as an anhydride): 99.7%
  Relevant substance (HPLC) Impurity D: 0.06%
  Relevant substance (HPLC) Other single impurity: Not detected
  Relevant substance (HPLC) Total impurities: 0.08%
[6]; month 6, LOQ (0.035%)
  Relevant substance (HPLC) Impurity A: <LOQ
[7]; day 0
  Appearance: Yellow powder
  Content (HPLC) (calculated as an anhydride): 99.7%
  Relevant substance (HPLC) Impurity D: Impurity D: 0.06%
  Relevant substance (HPLC) Total impurities: 0.07%
  Relevant substance (HPLC) Impurity A: Impurity A: <LOQ
[7]; day 5
  Appearance: Yellow powder
  Content (HPLC) (calculated as an anhydride): 100.1%
  Relevant substance (HPLC) Impurity D: Impurity D: 0.05%
  Relevant substance (HPLC) Total impurities: 0.05%
  Relevant substance (HPLC) Impurity A: Impurity A: <LOQ
[7]; day 10
  Appearance: Yellow powder
  Content (HPLC) (calculated as an anhydride): 99.8%
  Relevant substance (HPLC) Impurity D: Impurity D: 0.05%
  Relevant substance (HPLC) Total impurities: 0.05%
  Relevant substance (HPLC) Impurity A: Impurity A: <LOQ
[7]; [8]
  stability under illumination condition: remain stable
[7]
  stability under illumination condition: very stable; also recorded: relatively stable
[3]; day 0
  Appearance: Yellow powder
  Content (HPLC) (calculated as an anhydride): 99.7%
  Relevant substance (HPLC) Impurity D: Impurity D: 0.06%
  Relevant substance (HPLC) Total impurities: 0.07%
  Relevant substance (HPLC) Impurity A: Impurity A: <LOQ
[3]; day 5
  Appearance: Yellow powder
  Content (HPLC) (calculated as an anhydride): 99.4%
  Relevant substance (HPLC) Impurity D: Impurity D: 0.06%
  Relevant substance (HPLC) Total impurities: 0.07%
  Relevant substance (HPLC) Impurity A: Impurity A: <LOQ
[3]; day 10
  Appearance: Yellow powder
  Content (HPLC) (calculated as an anhydride): 99.8%
  Relevant substance (HPLC) Impurity D: Impurity D: 0.06%
  Relevant substance (HPLC) Total impurities: 0.07%
  Relevant substance (HPLC) Impurity A: Impurity A: <LOQ
[3]; listed as (3Z,6Z)-3-benzylidene-6-[(5-tert-butyl-1H-imidazol-4-yl)deuteromethylene]piperaz, monohydrate
  stability under high-temperature condition: remain stable
[3]; monohydrate
  stability under high-temperature condition: very stable; also recorded: relatively stable
[4]; [9]
  Weight gain: 0.20 mg
  Hygroscopicity: none
[4]; [10]
  Weight gain: 0.24 mg
  Hygroscopicity: none
[4]; [11]
  Weight gain: 0.20 mg
  Hygroscopicity: none
[4]; bottle opened for 24 hours
  weight gain percentage: less than 0.2%
[4]; monohydrate
  Hygroscopicity: basically not hygroscopic

## [2H]/C(c1nc[nH]c1C(C)(C)C)=c1/[nH]c(=O)/c(=C/c2ccccc2)[nH]c1=O [β-crystalline form, (3Z,6Z)-3-benzylidene-6-[(5-tert-butyl-1H-imidazol-4-yl)deuteromethylene]piperazine-2,5-dione]
[2]
  transformation of crystalline form: most of which may transform into δ-crystalline form
[3]
  stability under high-temperature condition: not stable enough
[4]
  Hygroscopicity: no hygroscopicity
